Patent US20020169147A1, “Compositions for controlling pests” (priority 2001, published 2002)

Each molecule was assayed on Dermatophagoides pteronyssinus (assay: Efficacy against mites (ticking in plastic dish, rated under a stereomicroscope)). Details: 0.4 ml applied to ticking; mixed population; rated after 2 hours, 1, 3 and 7 days; sum of three experimental units after end of experiment; control isopropanol/water = 9.0.
Assay type: in vivo
Description: A mixed population of the species Dermatophagoides pteronyssinus is used.
The upper rim of a plastic dish (Ø 7 cm, height 3 cm) is provided with glue and then covered with a piece of ticking of the same diameter. A spatula-tip full from a culture dish containing mites and feed (ground Tetramin) is placed on the ticking.
The dish is then placed on an inverted Petri dish in a plastic container (33×22 cm, height 6.5 cm), containing saturated sodium chloride solution, and the container is closed with a lid.
The next day, 0.4 ml of the composition of the invention is applied to the material.
The set-up is illuminated by daylight, the temperature is 24-26° C., and the relative atmospheric humidity within the closed plastic container is approximately 75%.
After 2 hours, 1, 3, and 7 days the state of the mites in comparison with a control treated only with isopropanol/water (1:1) is rated under a stereomicroscope (3=numerous mites, 0=no mites). Direct counting is impossible since dead animals are difficult to see.
If required (control, ineffective products), more feed is added.
Three experimental units are set up for each experiment, and after the end of the experiment the sum of the scores is recorded.

| Structure (SMILES) | sum of the scores of the state of the mites (0 = no mites, 9 = numerous mites) |
| --- | --- |
| Oc1ccccc1-c1ccccc1 [0.1% o-Phenylphenol, o-Phenylphenol] | 9.0 |
| CCCCCCCCCCCCOS(=O)(=O)[O-].[Na+] [1.0% Na lauryl sulphate, Na lauryl sulphate] | 9.0 |
| O=C(OCc1ccccc1)c1ccccc1 [5.0% Benzyl benzoate, Benzyl benzoate] | 9.0 |
| CC(O)CO (stereo not shown) [5.0% Propylene glycol, Propylene glycol] | 9.0 |
